# Data taken from US8987268B2, “Pyrrolopyridazine JAK3 inhibitors and their use for the treatment of inflammatory and autoimmune diseases” (Bristol-Myers Squibb Company, priority 2011, dated 2015).
# pIC50: −log10 of the molar value.
# Assays:
# GST-JAK1 enzyme = GST-JAK1 enzyme (Homo sapiens (Human), UniProt P23458); test: JAK1 Kinase Assay Protocol; format: biochemical; conditions: JAK1 kinase inhibition; read-out: LLE_JAK1 (IC50)
# Experimental: JAK1 Kinase Assay Protocol
# (§1) The assay reactions were performed in U-bottom 384-well plates. […] The reaction was initiated by the combination of GST-JAK1 enzyme with substrates and test compounds. The reactions were incubated at room temperature for 3 hours and terminated by adding 60 μl of 35 mM EDTA to each sample. Each reaction mixture was analyzed on the Caliper LabChip 3000 (Caliper, Hopkinton, Mass.) by electrophoretic separation of the fluorescent substrate and phosphorylated product. […] Compounds were dissolved at 10 mM in dimethylsulfoxide (DMSO) and evaluated at eleven concentrations. IC50 values were derived by non-linear regression analysis.
# GST-JAK3 enzyme = GST-JAK3 enzyme (Homo sapiens (Human), UniProt P52333); test: JAK3 Kinase Assay Protocol (Caliper); format: biochemical; conditions: JAK3 kinase inhibition; read-out: LLE_JAK3_FB (IC50)
# Experimental: JAK3 Kinase Assay Protocol (Caliper)
# as §1, with “GST-JAK3” for “GST-JAK1”
# GST-JAK3 enzyme, sequence (P52333 whole entry): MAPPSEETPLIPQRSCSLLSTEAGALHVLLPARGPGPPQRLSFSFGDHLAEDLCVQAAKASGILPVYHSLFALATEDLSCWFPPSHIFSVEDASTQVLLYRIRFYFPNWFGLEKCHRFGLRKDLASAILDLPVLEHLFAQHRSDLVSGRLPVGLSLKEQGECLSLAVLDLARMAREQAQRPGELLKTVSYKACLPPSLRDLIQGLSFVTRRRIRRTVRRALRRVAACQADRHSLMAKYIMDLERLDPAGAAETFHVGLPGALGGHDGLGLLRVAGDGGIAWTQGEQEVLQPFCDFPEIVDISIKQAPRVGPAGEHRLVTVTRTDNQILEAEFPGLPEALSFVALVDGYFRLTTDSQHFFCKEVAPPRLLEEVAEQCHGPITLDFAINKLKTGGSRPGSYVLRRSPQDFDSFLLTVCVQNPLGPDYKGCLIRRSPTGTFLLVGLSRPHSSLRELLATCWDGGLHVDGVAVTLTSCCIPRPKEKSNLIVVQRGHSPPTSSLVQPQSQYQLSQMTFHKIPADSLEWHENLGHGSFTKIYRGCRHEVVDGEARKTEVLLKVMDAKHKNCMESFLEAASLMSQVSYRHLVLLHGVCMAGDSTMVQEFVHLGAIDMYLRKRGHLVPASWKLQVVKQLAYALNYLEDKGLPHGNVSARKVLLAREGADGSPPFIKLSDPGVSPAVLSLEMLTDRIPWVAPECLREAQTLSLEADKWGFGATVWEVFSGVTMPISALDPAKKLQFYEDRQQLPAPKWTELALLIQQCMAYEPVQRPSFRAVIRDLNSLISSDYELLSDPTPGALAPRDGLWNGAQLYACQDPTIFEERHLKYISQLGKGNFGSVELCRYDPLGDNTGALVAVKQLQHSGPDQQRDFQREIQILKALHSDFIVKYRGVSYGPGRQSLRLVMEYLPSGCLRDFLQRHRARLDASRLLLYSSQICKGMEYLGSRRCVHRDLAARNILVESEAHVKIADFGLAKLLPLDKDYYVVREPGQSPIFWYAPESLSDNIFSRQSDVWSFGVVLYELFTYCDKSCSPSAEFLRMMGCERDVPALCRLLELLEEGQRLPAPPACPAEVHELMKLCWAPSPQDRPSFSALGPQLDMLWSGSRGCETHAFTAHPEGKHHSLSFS
# GST-JAK1 enzyme, sequence (P23458 whole entry): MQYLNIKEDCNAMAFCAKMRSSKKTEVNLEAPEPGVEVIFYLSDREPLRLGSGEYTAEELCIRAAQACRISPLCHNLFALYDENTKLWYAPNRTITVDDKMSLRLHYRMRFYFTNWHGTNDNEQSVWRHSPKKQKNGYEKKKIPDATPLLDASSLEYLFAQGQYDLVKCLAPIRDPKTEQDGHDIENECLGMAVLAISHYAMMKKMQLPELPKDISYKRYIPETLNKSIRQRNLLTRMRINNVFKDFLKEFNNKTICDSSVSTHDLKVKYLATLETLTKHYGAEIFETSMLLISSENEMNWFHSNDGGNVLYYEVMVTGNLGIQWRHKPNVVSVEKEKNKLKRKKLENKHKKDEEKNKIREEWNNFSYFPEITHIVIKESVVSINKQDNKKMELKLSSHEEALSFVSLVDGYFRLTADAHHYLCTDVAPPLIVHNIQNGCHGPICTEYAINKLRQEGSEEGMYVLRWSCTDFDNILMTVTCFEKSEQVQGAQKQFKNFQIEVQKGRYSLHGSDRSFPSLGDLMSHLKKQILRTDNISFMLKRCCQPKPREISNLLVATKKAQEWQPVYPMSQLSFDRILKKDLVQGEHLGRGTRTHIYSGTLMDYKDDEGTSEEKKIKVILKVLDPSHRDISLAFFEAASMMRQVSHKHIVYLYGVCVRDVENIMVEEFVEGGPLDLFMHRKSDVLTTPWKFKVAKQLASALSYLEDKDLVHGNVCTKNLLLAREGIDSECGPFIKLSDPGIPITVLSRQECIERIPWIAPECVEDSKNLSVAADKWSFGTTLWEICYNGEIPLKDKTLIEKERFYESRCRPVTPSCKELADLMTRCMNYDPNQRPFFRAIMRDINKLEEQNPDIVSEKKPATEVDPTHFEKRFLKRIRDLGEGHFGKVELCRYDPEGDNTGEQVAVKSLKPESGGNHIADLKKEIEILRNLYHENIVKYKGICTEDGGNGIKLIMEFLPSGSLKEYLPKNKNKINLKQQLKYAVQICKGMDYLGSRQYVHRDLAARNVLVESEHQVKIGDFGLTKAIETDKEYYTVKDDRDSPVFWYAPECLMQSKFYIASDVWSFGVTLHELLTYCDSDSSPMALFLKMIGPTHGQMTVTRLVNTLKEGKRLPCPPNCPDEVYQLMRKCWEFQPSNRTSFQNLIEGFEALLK
SMILES,pIC50 (GST-JAK1 enzyme),pIC50 (GST-JAK3 enzyme)
"CC1(F)COCC1Nc1c(C(N)=O)cnn2cc(N3CCCC3=O)cc12 (stereo not shown) [Example 40, 4-(4-fluoro-4-methyltetrahydrofuran-3-ylamino)-6-(2-oxopyrrolidin-1-yl)pyrrolo[1,2-b]pyridazine-3-carboxamide]",7.39,7.82
"NC(=O)c1cnn2cc(-c3ccccc3F)cc2c1NC1CCOCC1 [Example 34, 6-(2-fluorophenyl)-4-(tetrahydro-2H-pyran-4-ylamino)pyrrolo[1,2-b]pyridazine-3-carboxamide]",7.10,7.40
"CS(=O)(=O)N1CCC[C@H](Nc2c(C(N)=O)cnn3cc(-c4ccccc4)cc23)C1 [Example 46, 4-(((3S)-1-(methylsulfonyl)-3-piperidinyl)amino)-6-phenylpyrrolo[1,2-b]pyridazine-3-carboxamide]",7.24,7.68
"CC(=O)N1CCN(c2cc3c(N[C@@H]4C[C@@H]5CN(S(C)(=O)=O)C[C@@H]5[C@H]4C)c(C(N)=O)cnn3c2)C1=O [Example 60, 6-(3-acetyl-2-oxo-1-imidazolidinyl)-4-(((3aS,4R,5R,6aS)-4-methyl-2-(methylsulfonyl)octahydrocyclopenta[c]pyrrol-5-yl)amino)pyrrolo[1,2-b]pyridazine-3-carboxamide]",9.10,8.74
"COc1ncc(-c2cc3c(N[C@@H]4CN(C(=O)C5(C#N)CC5)C[C@@H]4CF)c(C(N)=O)cnn3c2)cn1 [Example 280, 4-((3S,4S)-1-(1-cyanocyclopropanecarbonyl)-4-(fluoromethyl)pyrrolidin-3-ylamino)-6-(2-methoxypyrimidin-5-yl)pyrrolo[1,2-b]pyridazine-3-carboxamide]",9.05,8.05

# The remaining lines, values ahead:
pIC50 (GST-JAK1 enzyme),pIC50 (GST-JAK3 enzyme),SMILES
7.67,8.12,"NC(=O)c1cnn2cc(-c3ccc(F)cc3)cc2c1NC1CCOCC1 [Example 28, 6-(4-fluorophenyl)-4-(tetrahydro-2H-pyran-4-ylamino)pyrrolo[1,2-b]pyridazine-3-carboxamide]"
9.52,9.40,"C[C@@H]1[C@H]2CN(C(=O)CO)C[C@H]2C[C@H]1Nc1c(C(N)=O)cnn2cc(-c3ccc(C(=O)NC4CC4)cc3)cc12 [Example 70, 6-(4-(cyclopropylcarbamoyl)phenyl)-4-((3aS,4R,5R,6aS)-2-(2-hydroxyacetyl)-4-methyloctahydrocyclopenta[c]pyrrol-5-ylamino)pyrrolo[1,2-b]pyridazine-3-carboxamide]"
9.00,8.82,"CC[C@@H]1CN(S(C)(=O)=O)CC[C@H]1Nc1c(C(N)=O)cnn2cc(-c3cnn(CCC#N)c3)cc12 [Example 126, 6-(1-(2-cyanoethyl)-1H-pyrazol-4-yl)-4-((3R,4R)-3-ethyl-1-(methylsulfonyl)piperidin-4-ylamino)pyrrolo[1,2-b]pyridazine-3-carboxamide]"
9.10,9.52,"CC[C@H]1CN(c2ncc(C#N)s2)C[C@H]1Nc1c(C(N)=O)cnn2cc(-c3cnn(C)c3)cc12 [Example 182, 4-((3S,4S)-1-(5-cyanothiazol-2-yl)-4-ethylpyrrolin-3-ylamino)-6-(1-methyl-1H-pyrazol-4-yl)pyrrolo[1,2-b]pyridazine-3-carboxamide]"
9.10,9.40,"CC[C@H]1CN(c2ccc(C#N)cn2)C[C@H]1Nc1c(C(N)=O)cnn2cc(-c3ccc(=O)n(C)c3)cc12 [Example 173, 4-((3S,4S)-1-(5-cyanopyridin-2-yl)-4-ethylpyrrolidin-3-ylamino)-6-(1-methyl-6-oxo-1,6-dihydropyridin-3-yl)pyrrolo[1,2-b]pyridazine-3-carboxamide]"
9.70,9.40,"C[C@H]1CN(c2ccc(C#N)cn2)C[C@H]1Nc1c(C(N)=O)cnn2cc(-c3cnn(CC(=O)N4CC(F)(F)C4)c3)cc12 [Example 184, 4-(((3S,4S)-1-(5-cyanopyridin-2-yl)-4-methylpyrrolidin-3-yl)amino)-6-(1-(2-(3,3-difluoroazetidin-1-yl)-2-oxoethyl)-1H-pyrazol-4-yl)pyrrolo[1,2-b]pyridazine-3-carboxamide]"
